Counter-ions that a name gives are not always drawn.
Key:
Format in all cases: in vivo
KKAy mice [1] = assay: Glucose tolerance test after drug administration in KKAy mice; details: male KKAy mice; for ΔAUC0-120 (area under the Δblood glucose level-time curve, 0 to 120 minutes): oral glucose 1.5 g/kg after fasting, mean ± standard error, in mg·min/dL (unit assumed)
Description: For the experiment, male KKAy mice (CLEA Japan, Inc.) were used. […] Pioglitazone hydrochloride was administered as a suspension in 0.5% MC solution. […] The continuous administration of physiological saline or BPS was carried out until the end of the experiment. The experimental groups were as follows: • (1) Control group (n=6): physiological saline (6 μL/day)+0.5% MC solution (10 mL/kg) • (2) BPS group (n=5): BPS (1 mg/kg/day)+0.5% MC solution (10 mL/kg) • (3) Pioglitazone hydrochloride 3 mg group (n=5): physiological saline (6 μL/day)+pioglitazone hydrochloride (3 mg/kg) • (4) BPS/pioglitazone hydrochloride 3 mg-combined-use group (n=6): BPS (1 mg/kg/day)+pioglitazone hydrochloride (3 mg/kg) • (5) Pioglitazone hydrochloride 30 mg group (n=6): physiological saline (6 μL/day)+pioglitazone hydrochloride (30 mg/kg). […] The increase in the blood glucose level at each timing relative to the blood glucose level observed immediately before the administration of glucose (0 minute) was defined as Δblood glucose level. The length of time (minutes) after the administration of glucose was plotted along the abscissa and Δblood glucose level (mg/dL) was plotted along the ordinate, to calculate the area under the Δblood glucose level-time curve from 0 minute to 120 minutes (ΔAUC0-120).

[2] = Body weight before and after drug administration in KKAy mice; details: male KKAy mice; for Change in body weight compared to the value before drug administration: paired t-test; for Body weight, After administration: at final administration; for Body weight, After administration / Body weight, Before administration: mean ± standard error; for Body weight, Before administration: baseline, day before start of dosing
Source text: (§1) For the experiment, male KKAy mice (CLEA Japan, Inc.) were used. KKAy mice show obesity and high blood glucose from 7 or 8 weeks old, and are commonly used as model mice for type 2 diabetes. The KKAy mice were purchased when they were 5 weeks old, and, from immediately thereafter, fed with CMF feed (Oriental Yeast Co., Ltd.) for 3 weeks under free food/water intake conditions, before being subjected to the experiment. For continuous subcutaneous administration of a solvent (physiological saline, 6 μL/day) or BPS (1 mg/kg/day, commercially available product from Toray Industries, Inc.), a minipump for sustained release (Alzet micro osmotic pump model 1002, Alzet osmotic pumps company) was subcutaneously placed in each KKAy mouse. The continuous administration of physiological saline or BPS was carried out until the end of the experiment. From 3 days after the placement (beginning of the subcutaneous continuous administration), oral administration of a solvent (0.5% methyl cellulose (MC) solution, 10 mL/kg) or pioglitazone hydrochloride (product synthesized in Toray Industries, Inc.) was started. Pioglitazone hydrochloride was administered as a suspension in 0.5% MC solution. The 0.5% MC solution and pioglitazone hydrochloride were administered for 10 days, during which the administration was carried out once per day in the evening. The mice were divided into the following experimental groups: • (1) Control group (n=8): physiological saline (6 μL/day)+0.5% MC solution (10 mL/kg) • (2) BPS group (n=6): BPS (1 mg/kg/day)+0.5% MC solution (10 mL/kg) • (3) Pioglitazone hydrochloride 3 mg group (n=6): physiological saline (6 μL/day)+pioglitazone hydrochloride (3 mg/kg) • (4) BPS/pioglitazone hydrochloride 3 mg-combined-use group (n=6): BPS (1 mg/kg/day)+pioglitazone hydrochloride (3 mg/kg) • (5) Pioglitazone hydrochloride 30 mg group (n=6): physiological saline (6 μL/day)+pioglitazone hydrochloride (30 mg/kg).
(§2) The body weight and the casual blood glucose level were measured on the day before starting of the continuous administration of physiological saline or BPS (these correspond to the data shown in the “Before administration” columns in Tables 1 and 2). The body weight was measured when 0.5% MC solution or pioglitazone hydrochloride was finally administered, and the casual blood glucose level was measured about 18 hours after the final administration (these correspond to the data shown in the “After administration” columns in Tables 1 and 2). The casual blood glucose level was measured by collecting about 5 μL of blood from the tail vein and subjecting the blood to measurement with a simplified blood glucose meter (Medisense Precision Xceed, ABBOTT JAPAN Co., LTD.).

KKAy mice [3] = assay: Casual blood glucose level before and after drug administration in KKAy mice; details: male KKAy mice; for Casual blood glucose level, After administration: about 18 hours after final administration; for Casual blood glucose level, After administration / Casual blood glucose level, Before administration: mean ± standard error; for Casual blood glucose level, Before administration: baseline, day before start of dosing
Source text: as §1, §2

[4] = BPS 1 mg/kg/day s.c. continuous and/or pioglitazone hydrochloride 3 mg/kg p.o. once daily 20 days
[5] = BPS 1 mg/kg/day s.c. continuous and/or pioglitazone hydrochloride 3 mg/kg p.o. once daily 10 days
[6] = groups BPS 1 mg/kg/day s.c. continuous and/or pioglitazone hydrochloride 3 mg/kg p.o.
[7] = pioglitazone hydrochloride 30 mg/kg group
[8] = pioglitazone hydrochloride 30 mg/kg p.o. once daily 10 days

Row | Structure (SMILES) | ΔAUC0-120 (area under the Δblood glucose level-time curve, 0 to 120 minutes) (KKAy mice [1]; [4]) | ΔAUC0-120 (area under the Δblood glucose level-time curve, 0 to 120 minutes) (KKAy mice [1]; pioglitazone hydrochloride 30 mg/kg p.o. once daily 20 days) | Change in body weight compared to the value before drug administration ([2]; BPS 1 mg/kg/day s.c. and/or pioglitazone hydrochloride 3 mg/kg p.o.) | Body weight, After administration [2, 5] [g] | Body weight, Before administration [2, 6] [g] | Body weight, Before administration [2, 7] [g] | Body weight, After administration [2, 8] [g] | Change in body weight compared to the value before drug administration ([2]; pioglitazone hydrochloride 30 mg/kg p.o.) | Casual blood glucose level, After administration (KKAy mice [3]; [5]) [mg/dL] | Casual blood glucose level, Before administration (KKAy mice [3]; [6]) [mg/dL] | Casual blood glucose level, Before administration (KKAy mice [3]; [7]) [mg/dL] | Casual blood glucose level, After administration (KKAy mice [3]; [8]) [mg/dL] | Change in ΔAUC0-120 compared to the control group (KKAy mice [1]; glucose tolerance test, BPS 1 mg/kg/day s.c. and/or pioglitazone hydrochloride 3 mg/kg p.o.) | Change in casual blood glucose level compared to the value before drug administration (KKAy mice [3]; BPS 1 mg/kg/day s.c. and/or pioglitazone hydrochloride 3 mg/kg p.o., paired t-test)
1 | CCc1ccc(CCOc2ccc(CC3SC(=O)NC3=O)cc2)nc1 (stereo not shown) [Pioglitazone hydrochloride, pioglitazone hydrochloride] | 23138 ± 4870 | 22461 ± 2157 | significant increase | 44.2 ± 1.3 | 41.7 ± 1.2 | 42.6 ± 1.1 | 46.7 ± 1.3 | significant increase | 452.8 ± 53.4 | 450.3 ± 15.4 | 437.7 ± 21.7 | 271.3 ± 16.9 | – | –
2 | CC#CCC(C)[C@H](O)/C=C/[C@@H]1[C@H]2c3cccc(CCCC(=O)O)c3O[C@H]2C[C@H]1O (mixture of isomers) [BPS, beraprost sodium] | 18684 ± 3551 | – | – | 42.3 ± 1.1 | 41.2 ± 0.8 | – | – | – | 392.3 ± 28.9 | 493.0 ± 35.6 | – | – | no change | no change

From US9492422B2, “Therapeutic or prophylactic agent for diabetes” (Toray Industries, Inc., priority 2009, dated 2016)
